Test results as given in the supplement of paper PMC4862054.

Assays:
CAL-51 [1] = experiment: normalised viability (% of control), CellTiter-Blue; higher = more viable cells (about 100 = DMSO control); details: incubation time: 72 h
Outline: (§1)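 Plates were quality-checked by Z'-factor and normalised to vehicle (100) and a positive kill control (0). The underlying assay incubated breast cancer cell lines for 72 h on 384-well plates with compound, then added 2.5 µl CellTiter-Blue for 2 h at 37 °C and read at 560/590 nm. The value is normalised viability at a single listed concentration of the series.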

CAL-148 [2] = experiment: as above; details: incubation time: 72 h
Outline: as §1

SK-BR-3 [3] = experiment: as above; details: incubation time: 72 h
Outline: as §1

HCC1143 = experiment: as above; details: incubation time: 72 h
Outline: as §1

CAL-120 = experiment: as above; details: incubation time: 72 h
Outline: as §1

MDA-MB-468 [4] = experiment: as above; details: incubation time: 72 h
Outline: as §1

MDA-MB-436 [5] = experiment: as above; details: incubation time: 72 h
Outline: as §1

HCC1937 [6] = experiment: as above; details: incubation time: 72 h
Outline: as §1

Hs578T = experiment: as above; details: incubation time: 72 h
Outline: as §1

MDA-MB-453 [7] = experiment: as above; details: incubation time: 72 h
Outline: as §1

BT-549 [8] = experiment: as above; details: incubation time: 72 h
Outline: as §1

HCC1599 = experiment: as above; details: incubation time: 72 h
Outline: as §1

MFM-223 = experiment: as above; details: incubation time: 72 h
Outline: as §1

BT-474 [9] = experiment: as above; details: incubation time: 72 h
Outline: as §1

CAL-148 [10] = experiment: drug sensitivity score (DSS), CellTiter-Glo (DSS (AUC-based score)); higher = stronger drug effect (viability inhibition or cytotoxicity); extreme values may be limits of the assay; details: incubation time: 72 h
Outline: (§2)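 Breast cancer cell lines, seeded as 20 µl suspension, were incubated 72 h with compound in 384-well plates at 5 concentrations in 10-fold steps over a 10,000-fold range set for each compound. Fluorescence from CellTox Green was read at 485/520 nm before CellTiter-Glo luminescence, which was read after 10 min at room temperature. Every plate was normalised to 0.1 % DMSO and a positive kill control, and the drug sensitivity score was taken from the area under the fitted dose-response curve.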

SK-BR-3 [11] = experiment: as above; details: incubation time: 72 h
Outline: as §2

MDA-MB-468 [12] = experiment: as above; details: incubation time: 72 h
Outline: as §2

HDQ-P1 = experiment: as above; details: incubation time: 72 h
Outline: as §2

MCF-10A [13] = experiment: as above; details: incubation time: 72 h
Outline: as §2

CAL-85-1 [14] = experiment: as above; details: incubation time: 72 h
Outline: as §2

BT-549 [15] = experiment: as above; details: incubation time: 72 h
Outline: as §2

BT-474 [16] = experiment: as above; details: incubation time: 72 h
Outline: as §2

BT-549 [17] = details: 72 h
Outline: (§3)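 For viability and cell death testing, 384-well plates carried compound at 5 concentrations in 10-fold steps over a compound-specific 10,000-fold range, and breast cancer cell lines were seeded in 20 µl suspension. After 72 h incubation, cell death was read by CellTox Green fluorescence (485/520 nm) before viability was read by CellTiter-Glo luminescence. EC50 was fitted from the dose-response curves and censored at the top concentration. Normalisation on each plate was to 0.1 % DMSO and a positive kill control.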

CAL-51 [18] = details: 72 h
Outline: as §3

SK-BR-3 [19] = details: 72 h
Outline: as §3

MDA-MB-231 = details: 72 h
Outline: as §3

MDA-MB-468 [20] = details: 72 h
Outline: as §3

MDA-MB-436 [21] = details: 72 h
Outline: as §3

HCC1937 [22] = details: 72 h
Outline: as §3

MCF-10A [23] = details: 72 h
Outline: as §3

CAL-85-1 [24] = details: 72 h
Outline: as §3

MDA-MB-453 [25] = details: 72 h
Outline: as §3

BT-474 [26] = details: 72 h
Outline: as §3

For `Cn1c(=O)n(-c2ccc(C(C)(C)C#N)cc2)c2c3cc(-c4cnc5ccccc5c4)ccc3ncc21` [NVP-BEZ235], the normalised viability (CAL-51 [1]; 3 nM) was 84.7%, the normalised viability (CAL-148 [2]; 3 nM) was 93% and the normalised viability (SK-BR-3 [3]; 100 nM) was 21.9%. It also gave a normalised viability (HCC1143; 100 nM) of 37.9%, a normalised viability (CAL-120; 100 nM) of 17.6% and a normalised viability (MDA-MB-468 [4]; 100 nM) of 37%. The normalised viability (MDA-MB-436 [5]; 100 nM) was 68.2%, the normalised viability (HCC1937 [6]; 100 nM) was 47.4% and the normalised viability (Hs578T; 100 nM) was 32.5%. The normalised viability (MDA-MB-453 [7]; 3 nM) was 87.9%, the normalised viability (BT-549 [8]; 100 nM) was 21.7% and the normalised viability (HCC1599; 100 nM) was 64.8%. For the same compound, the normalised viability (MFM-223; 100 nM) was 24.5% and the normalised viability (BT-474 [9]; 100 nM) was 42.9%.
With `Nc1ncnc2c1c(COc1cccc(Cl)c1)nn2C1CCOCC1` the drug sensitivity score (CAL-148 [10]) was 0, the drug sensitivity score (SK-BR-3 [11]) was 0 and the drug sensitivity score (MDA-MB-468 [12]) was 0. The drug sensitivity score (HDQ-P1) was 0, the drug sensitivity score (MCF-10A [13]) was 0 and the drug sensitivity score (CAL-85-1 [14]) was 0. The drug sensitivity score (BT-549 [15]) was 0.519, the drug sensitivity score (BT-474 [16]) was 0 and the “EC50, CellTiter-Glo” value (BT-549 [17]) was > 10000 nM.
For `CN(C)C[C@@H]1CCn2cc(c3ccccc32)C2=C(C(=O)NC2=O)c2cn(c3ccccc23)CCO1` [Ruboxistaurin], the drug sensitivity score (CAL-148 [10]) was 8.61, the drug sensitivity score (SK-BR-3 [11]) was 7.58 and the drug sensitivity score (MDA-MB-468 [12]) was 8.68. It also gave a drug sensitivity score (HDQ-P1) of 4.6, a drug sensitivity score (MCF-10A [13]) of 3.64 and a drug sensitivity score (CAL-85-1 [14]) of 5.13. The drug sensitivity score (BT-549 [15]) was 6.4, the drug sensitivity score (BT-474 [16]) was 7 and the normalised viability (CAL-51 [1]; 30 nM) was 101%. The normalised viability (CAL-148 [2]; 30 nM) was 116%, the normalised viability (SK-BR-3 [3]; 1000 nM) was 86.6% and the normalised viability (HCC1143; 1000 nM) was 109%. The normalised viability (CAL-120; 1000 nM) was 110%, the normalised viability (MDA-MB-468 [4]; 1000 nM) was 85.2% and the normalised viability (MDA-MB-436 [5]; 1000 nM) was 49.2%. For the same compound, the normalised viability (HCC1937 [6]; 1000 nM) was 74%, the normalised viability (Hs578T; 1000 nM) was 99.8% and the normalised viability (MDA-MB-453 [7]; 30 nM) was 99.9%. It also gave a normalised viability (BT-549 [8]; 1000 nM) of 87.6%, a normalised viability (HCC1599; 1000 nM) of 91.3% and a normalised viability (MFM-223; 1000 nM) of 80.8%. For the same compound, the normalised viability (BT-474 [9]; 1000 nM) was 93.1%, the “EC50, CellTiter-Glo” value (CAL-51 [18]) was 2770 nM and the “EC50, CellTiter-Glo” value (SK-BR-3 [19]) was 2160 nM. The “EC50, CellTiter-Glo” value (MDA-MB-231) was 2590 nM, the “EC50, CellTiter-Glo” value (MDA-MB-468 [20]) was 1700 nM and the “EC50, CellTiter-Glo” value (MDA-MB-436 [21]) was 2670 nM. For the same compound, the “EC50, CellTiter-Glo” value (HCC1937 [22]) was 6180 nM, the “EC50, CellTiter-Glo” value (MCF-10A [23]) was 7230 nM and the “EC50, CellTiter-Glo” value (CAL-85-1 [24]) was 3470 nM. The “EC50, CellTiter-Glo” value (MDA-MB-453 [25]) was 2920 nM, the “EC50, CellTiter-Glo” value (BT-549 [17]) was 2460 nM and the “EC50, CellTiter-Glo” value (BT-474 [26]) was 2390 nM.
For `C[C@]12CC[C@H](O)CC1=CC[C@@H]1[C@@H]2CC[C@]2(C)C(c3cccnc3)=CC[C@@H]12` [Abiraterone], the drug sensitivity score (CAL-148 [10]) was 0, the drug sensitivity score (SK-BR-3 [11]) was 0 and the drug sensitivity score (MDA-MB-468 [12]) was 0. The drug sensitivity score (HDQ-P1) was 0, the drug sensitivity score (MCF-10A [13]) was 0 and the drug sensitivity score (CAL-85-1 [14]) was 0. The drug sensitivity score (BT-549 [15]) was 0, the drug sensitivity score (BT-474 [16]) was 0 and the normalised viability (CAL-51 [1]; 15 nM) was 107%. The normalised viability (CAL-148 [2]; 15 nM) was 84.2%, the normalised viability (SK-BR-3 [3]; 500 nM) was 101% and the normalised viability (HCC1143; 500 nM) was 80.2%. For the same compound, the normalised viability (CAL-120; 500 nM) was 81.4%, the normalised viability (MDA-MB-468 [4]; 500 nM) was 106% and the normalised viability (MDA-MB-436 [5]; 500 nM) was 104%. It also gave a normalised viability (HCC1937 [6]; 500 nM) of 83%, a normalised viability (Hs578T; 500 nM) of 116% and a normalised viability (MDA-MB-453 [7]; 15 nM) of 110%. The normalised viability (BT-549 [8]; 500 nM) was 111%, the normalised viability (HCC1599; 500 nM) was 385% and the normalised viability (MFM-223; 500 nM) was 96.6%. For the same compound, the normalised viability (BT-474 [9]; 500 nM) was 116% and the “EC50, CellTiter-Glo” value (CAL-51 [18]) was 43.4 nM.
